Data from US20100189688A1, “Dose forms comprising VX-950 and their dosage regimen” (priority 2007, published 2010).
In brackets after ≈: the same amount, converted by molar mass. Several values for one entry are separate records, joined by “and”; a condition that tells them apart may be missing. Equal entries are not always repeated. Marks after values point to notes of the source that are not given here.

Experiments:
[1] = test system: ALT (alanine aminotransferase); test: 14-day multiple-dose study: serum ALT / AST levels; format: in vivo, human
Excerpt: The serum alanine aminotransferase (ALT) level can be measured using commercially available methods. Mean ALT levels, elevated at baseline, decreased during dosing in all groups (FIG. 6). Mean ALT levels increased, returned toward baseline, in all dose groups during follow up.

[2] = human, in vivo
Protocol: (§2) A dose escalation scheme was used that combined dose doubling and modified Fibonacci to be aggressive in the lower dose range and conservative in the higher dose range.
(§3) A pharmacokinetics analysis was performed using the statistical moment approach.

HCV NS3/4A protease = HCV NS3/4A protease (Hepatitis C virus genotype 1a, UniProt P27958); test: In vitro cleavage of TRIF by HCV NS3 protease; format: biochemical; settings: 10 μM VX-950, tNS3 0-4 μM
Sequence of HCV NS3/4A protease (P27958 1027-1208, other chains not shown): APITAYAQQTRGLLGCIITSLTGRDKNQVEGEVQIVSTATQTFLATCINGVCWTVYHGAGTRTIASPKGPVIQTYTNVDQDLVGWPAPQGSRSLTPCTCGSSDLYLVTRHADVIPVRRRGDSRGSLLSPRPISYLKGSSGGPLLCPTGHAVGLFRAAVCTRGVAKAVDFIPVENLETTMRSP
Protocol: The 35S methionine labeled coupled in vitro transcription/translation product of TRIF protein (as a substrate) was incubated with increasing concentration of tNS3 protease enzyme ranging from 0-4 μM either in the presence (Circles) or absence (Squares) of 10 μM VX-950, followed by SDS-PAGE and exposure to phosphorimager.

infectious virus = test: Infectious virus assay; format: cell-based
[3] = Multiple-dose study (Example 5): tolerability and VX-950 plasma trough levels; format: in vivo, human
Protocol: (§1) All other 34 subjects completed the study.
The assay for determined VX-950 concentration in human plasma was performed by methods well known in the art. See, e.g., Wasley, A. et al., Semin. Liver Dis., 20:1-16, 2000; Alter, H. J. et al., Semin. Liver Dis., 20: 17-35, 2000; Brown, R. S. Jr. et al., Liver Transpl., 9: S10-S13, 2003; DeFrancesco, R. et al., Nature, 436(7053): 953-960, 2005; Bowen, D. G. et al., J. Hepatol., 42: 408-417, 2005; Hoofnagle, J. H., Hepatology, 36: S21-S29, 2002, Brown, R. S. Jr. et al., Nature, 436 (7053): 973-978, 2005; and Chisari, F. V., Nature, 436(7053): 930-932, 2005.
Sample Preparation: 100 μL of plasma and 100 μL of internal standard working solution (or acetonitrile for blank samples) were added to an extraction tube. After vortex mixing for 30 seconds, 500 μL of toluene was added and extraction was performed by vortex mixing for 30 seconds. After centrifugation at 3000 rpm at 4° C. for 5 minutes, the aqueous layer was frozen in a mixture of acetone and dry ice and the organic layer was transferred to another extraction tube. 50 μL of 2,2-dimethoxypropane was added and the samples were evaporated to dryness under nitrogen at approximately 30° C. The residue was re-dissolved in 300 μL of a mixture of heptane and acetone (90:10, v/v) [or a mixture of heptane and THF (80:20, v/v)] by vortex mixing for 60 seconds. […]

genotype 1 hepatitis C = test: Phase 1b 14-day study of VX-950, VX-950/Peg-IFN-2a or Peg-IFN-2a followed by Peg-IFN-2a/RBV: HCV RNA and SVR (Example 9); settings: for patients who achieved SVR: 14 days of VX-950 (alone or in combination with PEG-IFN) then PEG-IFN with RBV
IFN-β promoter activity = test: IFN-β promoter luciferase activity in Sendai virus stimulated Huh7 cells expressing HCV protease; settings: 10 μM VX-950, Huh7 cells, Sendai virus stimulation, 16 hours post-infection
WT-HCV protease-SEAP = settings: SCID mice expressing WT-HCV protease-SEAP; cited from earlier work
clinical = settings: male, human, in vivo, po
Protocol: as §2, §3

[4] = test system: hepatitis C virus (HCV) replicon; test: HCV replicon cell assay; settings: 48 h
[5] = Predicted human liver exposure relative to replicon assay IC50/IC90; settings: in the dose range studied
[6] = in vivo
neopterin = test: 14-day multiple-dose study: serum neopterin (ELISA)
HCV genotype 1 = test: 14-day multiple-dose study in Hepatitis C positive subjects: plasma HCV RNA (Example 5); format: in vivo, human; settings: for mean HCV RNA drop: 750 mg q8h
Protocol: Detection of HCV RNA can be done, e.g., by using the Roche COBAS TaqMan HCV/HPS assay, available from Roche molecular Diagnostics. Subjects (or patients) receiving 750 mg of VX-950 every eight hours for 14 days achieved a median reduction in HCV-RNA of greater than 4 log10 (i.e., 10,000-fold decrease) at the end of the treatment. […] See Example 5 and FIGS. 3-5.
as §1
The HCV positive subjects were tested post-treatment to monitor HCV RNA levels' return to baseline.

[7] = Single-dose escalation tolerance and pharmacokinetics study in healthy male volunteers (Example 3); settings: single doses 25 mg to 1250 mg
Protocol: as §2, §3

HCV = settings: monotherapy, fraction of cases; cited from earlier work
[8] = at the completion of the 14-day dosing period
[9] = of the 8 subjects receiving 750 mg q8h

CCC[C@H](NC(=O)[C@@H]1[C@H]2CCC[C@H]2CN1C(=O)[C@@H](NC(=O)[C@@H](NC(=O)c1cnccn1)C1CCCCC1)C(C)(C)C)C(=O)C(=O)NC1CC1 [VX-950]
median ALT value ([1]; 450 mg q8h, day 12, 5 out of 10 samples missing (range 25-125)): 38 U/I
effect on ALT levels in vivo ([1]; 14 days dosing): decreases
effect on AST (aspartate aminotransferase) levels ([1]; upon administration): decreased
oral bioavailability ([2]; po): orally bioavailable
VX-950 eliminated unchanged in the urine ([2]; male): Less than 2%
effect on in vitro cleavage of TRIF by NS3 protease (HCV NS3/4A protease): inhibits in vitro cleavage of TRIF
IC50 (infectious virus): 0.196 µg/mL (≈ 0.288 µM)
tolerability of multiple doses ([3]; 450 mg, 750 mg or 1250 mg, 5 or 14 days): well tolerated at all dose levels
trough levels of VX-950 in plasma ([3]; about 750 mg three times a day, every 8 hours, compared with other regimens): highest trough levels
SVR after a 2 week treatment of VX-950 (genotype 1 hepatitis C; 2 week treatment): SVR was achieved in a patient
HCV RNA levels at the last off-study follow-up day (genotype 1 hepatitis C; 12 weeks after the last on-study follow-up, patients who continued with Peg-IFN-2a/RBV): undetectable in all patients
antiviral activity (genotype 1 hepatitis C; 14 days): rapid and profound antiviral activity
patients who achieved SVR (genotype 1 hepatitis C; treated for 24 weeks): 7 of 10
patients who achieved SVR (genotype 1 hepatitis C; treated for 48 weeks): 3 of 5
patients in whom SVR was achieved (genotype 1 hepatitis C; 14 days of VX-950 optionally in combination with Peg-INF, followed by Peg-INF/RBV for an additional 22 or 46 weeks): 10 of 15
decrease of HCV RNA levels, generally (genotype 1 hepatitis C; [8]): at least 2 log10
decrease of HCV RNA levels, in some cases (genotype 1 hepatitis C; [8]): at least 4 log10
patients with undetectable HCV RNA (genotype 1 hepatitis C; at week 12): 5 of 7
patients with undetectable HCV RNA (genotype 1 hepatitis C; at week 24, all patients who received VX-950 (alone or with PEG-IFN)): 15
Undetectable HCV RNA at 24-week off study peg-IFN-2a/RBV treatment (genotype 1 hepatitis C; group sizes N 7 / 8 / 4): 7* N
Undetectable HCV RNA at 12 weeks follow-up after stopping peg-IFN-2a/RBV (genotype 1 hepatitis C; patients who stopped Peg-IFN-2a/RBV at week 24): 2 of 4 and 2/4
effect on WT HCV protease mediated suppression of IFNβ promoter activation (IFN-β promoter activity): overcomes the WT HCVpro mediated suppression of IFNβ promoter activation
effect on elevated ALT levels in an animal model (WT-HCV protease-SEAP): ameliorates elevated ALT levels
Tmax (clinical): 3 h
IC50 ([4]; read-out: IC50 in the replicon assay): ~0.24 µg/mL (≈ 0.353 µM)
IC90 ([4]; read-out: IC90 in the replicon assay): ~0.476 µg/mL (≈ 0.7 µM)
predicted average liver concentration as multiple of replicon assay IC50 [5]: up to 113 fold
predicted average liver concentration as multiple of replicon assay IC90 [5]: up to 57 fold
tolerability [6]: well tolerated
mean neopterin level (neopterin; 750 mg q8h, day 14 (baseline 10.48±0.84 nmol/L; ULN 7.7)): 7.32 ± 0.48 nmol/L
effect on neopterin levels in vivo (neopterin; 14 days dosing): decreases
Maximum change from baseline in HCV RNA (log10 IU/mL): subjects in category >−1 to <0 (HCV genotype 1; 450 mg q8h (n = 10)): 0 n (%)
Maximum change from baseline in HCV RNA (log10 IU/mL): subjects in category >−2 to ≦−1 (HCV genotype 1; 450 mg q8h (n = 10)): 0 n (%)
Maximum change from baseline in HCV RNA (log10 IU/mL): subjects in category >−3 to ≦−2 (HCV genotype 1; 450 mg q8h (n = 10)): 1 (10.0) n (%)
Maximum change from baseline in HCV RNA (log10 IU/mL): subjects in category >−4 to ≦−3 (HCV genotype 1; 450 mg q8h (n = 10)): 7 (70.0) n (%)
Maximum change from baseline in HCV RNA (log10 IU/mL): subjects in category >−5 to ≦−4 (HCV genotype 1; 450 mg q8h (n = 10)): 0 n (%)
Maximum change from baseline in HCV RNA (log10 IU/mL): subjects in category ≧−5 (HCV genotype 1; 450 mg q8h (n = 10)): 2 (20.0) n (%)
median reduction in HCV-RNA (HCV genotype 1; 750 mg every eight hours, end of 14 days): greater than 4 log10
Maximum change from baseline in HCV RNA (log10 IU/mL): subjects in category >−1 to <0 (HCV genotype 1; 750 mg q8h (n = 8)): 0 n (%)
Maximum change from baseline in HCV RNA (log10 IU/mL): subjects in category >−2 to ≦−1 (HCV genotype 1; 750 mg q8h (n = 8)): 0 n (%)
Maximum change from baseline in HCV RNA (log10 IU/mL): subjects in category >−3 to ≦−2 (HCV genotype 1; 750 mg q8h (n = 8)): 0 n (%)
Maximum change from baseline in HCV RNA (log10 IU/mL): subjects in category >−4 to ≦−3 (HCV genotype 1; 750 mg q8h (n = 8)): 3 (37.5) n (%)
Maximum change from baseline in HCV RNA (log10 IU/mL): subjects in category >−5 to ≦−4 (HCV genotype 1; 750 mg q8h (n = 8)): 3 (37.5) n (%)
Maximum change from baseline in HCV RNA (log10 IU/mL): subjects in category ≧−5 (HCV genotype 1; 750 mg q8h (n = 8)): 2 (25.0) n (%)
mean HCV RNA drop (HCV genotype 1; day 3): 3.6 log10
mean HCV RNA drop (HCV genotype 1; day 14): 4.3 log10
Maximum change from baseline in HCV RNA (log10 IU/mL): subjects in category >−1 to <0 (HCV genotype 1; 1250 mg q12h (n = 10)): 0 n (%)
Maximum change from baseline in HCV RNA (log10 IU/mL): subjects in category >−2 to ≦−1 (HCV genotype 1; 1250 mg q12h (n = 10)): 0 n (%)
Maximum change from baseline in HCV RNA (log10 IU/mL): subjects in category >−3 to ≦−2 (HCV genotype 1; 1250 mg q12h (n = 10)): 1 (10.0) n (%)
Maximum change from baseline in HCV RNA (log10 IU/mL): subjects in category >−4 to ≦−3 (HCV genotype 1; 1250 mg q12h (n = 10)): 9 (90.0) n (%)
Maximum change from baseline in HCV RNA (log10 IU/mL): subjects in category >−5 to ≦−4 (HCV genotype 1; 1250 mg q12h (n = 10)): 0 n (%)
Maximum change from baseline in HCV RNA (log10 IU/mL): subjects in category ≧−5 (HCV genotype 1; 1250 mg q12h (n = 10)): 0 n (%)
drop in viral load in every patient (HCV genotype 1; all dose groups, during administration): at least 2 log10
median reduction of HCV-RNA (HCV genotype 1; each of the other two dose groups (450 mg q8h, 1250 mg q12h), end of 14 days): greater than 2 log10
effect on HCV replication in humans (HCV genotype 1; human, in vivo): effective in inhibiting HCV replication
subjects with HCV RNA below the limit of detection (LLD 10 IU/mL) (HCV genotype 1; [9]): 2
subjects with HCV RNA below the limit of quantitation (LLQ 30 IU/mL) (HCV genotype 1; [9]): 4
subjects with a 3 log10 reduction in HCV-RNA (HCV genotype 1; within the first three days of treatment): 26 of the 28
reduction in HCV-RNA achieved by every subject (HCV genotype 1; within the first three days of treatment, all dose groups): greater than 2 log10
tolerability of single doses [7]: well tolerated at all dose levels

interferon alfa
long term remission (HCV): ~25%
